ChEMBL document CHEMBL1201862, “PubChem BioAssay data set” (2004)
Active and inactive are the calls of the source.

What was measured:
cells [1] = type: functional, cell-based
Mu-type opioid receptor [2] = molecular target: T1, Mu-type opioid receptor (Homo sapiens, UniProt P35372); type: functional, cell-based
cells [3] = type: functional, cell-based; remark: listed apart in the source
[4] = molecular target: T2, Trace amine-associated receptor 1 (Homo sapiens, UniProt Q96RJ0); experiment: Fluorescence-based cell-based high throughput dose response assay to identify agonists of the human trace amine associated receptor 1 (TAAR1).; type: functional
T2 sequence (Q96RJ0 whole entry): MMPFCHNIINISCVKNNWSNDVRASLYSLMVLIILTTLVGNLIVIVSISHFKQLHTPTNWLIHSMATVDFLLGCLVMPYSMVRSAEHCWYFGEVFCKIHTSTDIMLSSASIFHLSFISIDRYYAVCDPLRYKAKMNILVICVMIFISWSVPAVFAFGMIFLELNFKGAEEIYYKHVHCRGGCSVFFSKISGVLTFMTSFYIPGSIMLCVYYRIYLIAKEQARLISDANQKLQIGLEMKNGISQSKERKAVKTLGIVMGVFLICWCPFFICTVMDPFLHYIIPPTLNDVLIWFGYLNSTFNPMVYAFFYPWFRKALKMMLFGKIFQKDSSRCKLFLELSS

[5] = molecular target: T2, Trace amine-associated receptor 1; experiment: Counterscreen for agonists of the human trace amine associated receptor 1 (hTAAR1): Fluorescence-based cell-based high throughput dose response assay to identify hTAAR1 agonist that also desensitize TAAR1 receptor response.; type: functional
[6] = molecular target: 5-hydroxytryptamine receptor 2A (Mus musculus, UniProt P35363); type: functional, cell-based;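 further: CHO-K1 cells with tagged receptor and beta-arrestin; agonist potency measured as compound-induced activation of the receptor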
Sequence of 5-hydroxytryptamine receptor 2A (P35363 whole entry): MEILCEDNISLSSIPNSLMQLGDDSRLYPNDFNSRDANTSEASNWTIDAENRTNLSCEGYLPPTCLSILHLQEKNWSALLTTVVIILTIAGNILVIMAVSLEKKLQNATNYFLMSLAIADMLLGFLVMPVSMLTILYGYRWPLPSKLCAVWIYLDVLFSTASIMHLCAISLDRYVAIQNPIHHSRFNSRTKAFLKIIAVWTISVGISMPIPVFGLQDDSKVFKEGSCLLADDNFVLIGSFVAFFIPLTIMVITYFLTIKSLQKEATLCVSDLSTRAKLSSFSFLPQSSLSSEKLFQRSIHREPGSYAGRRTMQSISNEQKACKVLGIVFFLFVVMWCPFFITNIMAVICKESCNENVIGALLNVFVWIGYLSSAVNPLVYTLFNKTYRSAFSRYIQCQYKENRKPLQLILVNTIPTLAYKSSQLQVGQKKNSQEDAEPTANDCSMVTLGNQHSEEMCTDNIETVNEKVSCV

[7] = molecular target: Voltage-gated inwardly rectifying potassium channel KCNH2 (Homo sapiens, UniProt Q12809); settings: Potency;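 further: confirmatory quantitative high-throughput screen measuring inhibition of hERG channel activity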
Sequence of Voltage-gated inwardly rectifying potassium channel KCNH2 (Q12809 whole entry): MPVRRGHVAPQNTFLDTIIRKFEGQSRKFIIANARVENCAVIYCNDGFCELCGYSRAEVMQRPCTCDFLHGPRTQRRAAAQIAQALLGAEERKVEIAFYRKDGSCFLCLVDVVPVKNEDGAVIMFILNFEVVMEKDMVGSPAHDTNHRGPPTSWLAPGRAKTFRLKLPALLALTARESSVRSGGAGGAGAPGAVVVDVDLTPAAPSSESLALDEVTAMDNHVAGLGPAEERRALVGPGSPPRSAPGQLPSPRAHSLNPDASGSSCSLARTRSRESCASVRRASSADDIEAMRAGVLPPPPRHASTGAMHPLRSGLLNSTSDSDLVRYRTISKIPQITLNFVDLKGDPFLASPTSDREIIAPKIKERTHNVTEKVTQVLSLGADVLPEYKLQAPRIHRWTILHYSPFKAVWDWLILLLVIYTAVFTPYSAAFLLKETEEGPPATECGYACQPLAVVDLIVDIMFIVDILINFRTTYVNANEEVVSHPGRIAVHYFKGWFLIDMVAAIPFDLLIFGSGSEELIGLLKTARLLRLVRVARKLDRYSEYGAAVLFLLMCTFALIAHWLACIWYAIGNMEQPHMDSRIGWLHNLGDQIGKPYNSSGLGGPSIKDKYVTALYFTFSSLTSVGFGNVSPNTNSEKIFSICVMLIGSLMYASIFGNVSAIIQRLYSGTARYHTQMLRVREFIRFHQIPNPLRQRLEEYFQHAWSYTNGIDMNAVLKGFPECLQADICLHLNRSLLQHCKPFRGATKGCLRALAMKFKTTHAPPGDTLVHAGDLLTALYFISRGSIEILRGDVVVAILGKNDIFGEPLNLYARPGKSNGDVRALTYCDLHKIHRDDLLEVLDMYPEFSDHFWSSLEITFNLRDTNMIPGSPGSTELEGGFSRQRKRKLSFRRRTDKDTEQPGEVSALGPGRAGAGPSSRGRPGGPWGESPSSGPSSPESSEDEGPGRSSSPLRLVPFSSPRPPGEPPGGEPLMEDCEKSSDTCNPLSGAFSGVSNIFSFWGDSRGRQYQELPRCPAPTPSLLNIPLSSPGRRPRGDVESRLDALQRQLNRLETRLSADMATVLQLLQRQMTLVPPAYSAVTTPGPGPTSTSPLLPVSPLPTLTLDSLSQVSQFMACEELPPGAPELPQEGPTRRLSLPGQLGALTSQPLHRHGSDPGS

Protein skinhead-1 = molecular target: T3, Protein skinhead-1 (Caenorhabditis elegans, UniProt P34707); type: functional
T3 sequence (P34707 whole entry): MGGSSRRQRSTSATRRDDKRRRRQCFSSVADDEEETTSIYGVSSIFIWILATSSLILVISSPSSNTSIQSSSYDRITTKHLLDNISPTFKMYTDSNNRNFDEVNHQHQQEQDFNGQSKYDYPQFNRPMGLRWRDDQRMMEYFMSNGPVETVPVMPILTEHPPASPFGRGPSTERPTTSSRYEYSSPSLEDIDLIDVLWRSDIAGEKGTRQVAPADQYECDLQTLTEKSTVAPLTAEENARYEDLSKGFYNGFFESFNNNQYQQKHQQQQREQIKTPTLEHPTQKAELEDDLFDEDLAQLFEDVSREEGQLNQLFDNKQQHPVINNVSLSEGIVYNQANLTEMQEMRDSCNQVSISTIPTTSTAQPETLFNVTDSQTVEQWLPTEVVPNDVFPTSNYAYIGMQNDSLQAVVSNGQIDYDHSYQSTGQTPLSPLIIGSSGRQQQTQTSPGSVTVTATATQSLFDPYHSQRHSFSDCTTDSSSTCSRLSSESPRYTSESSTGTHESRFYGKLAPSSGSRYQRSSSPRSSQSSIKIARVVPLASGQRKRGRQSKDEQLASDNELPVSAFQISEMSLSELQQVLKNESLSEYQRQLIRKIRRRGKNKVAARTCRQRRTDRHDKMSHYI

HeLa = experiment: ATP-based viability loss in HeLa cells – cell-based, CellTiter-Glo luminescence, cherry-pick samples, cytotoxicity control for MITF activator project, dose response (AID 540259); type: functional; settings: Homo sapiens
Escherichia coli = experiment: microbe, parasite or virus in culture
[8] = molecular target: T4, Dual specificity protein phosphatase 6 (Rattus norvegicus, UniProt Q64346); type: functional
T4 sequence (Q64346 whole entry): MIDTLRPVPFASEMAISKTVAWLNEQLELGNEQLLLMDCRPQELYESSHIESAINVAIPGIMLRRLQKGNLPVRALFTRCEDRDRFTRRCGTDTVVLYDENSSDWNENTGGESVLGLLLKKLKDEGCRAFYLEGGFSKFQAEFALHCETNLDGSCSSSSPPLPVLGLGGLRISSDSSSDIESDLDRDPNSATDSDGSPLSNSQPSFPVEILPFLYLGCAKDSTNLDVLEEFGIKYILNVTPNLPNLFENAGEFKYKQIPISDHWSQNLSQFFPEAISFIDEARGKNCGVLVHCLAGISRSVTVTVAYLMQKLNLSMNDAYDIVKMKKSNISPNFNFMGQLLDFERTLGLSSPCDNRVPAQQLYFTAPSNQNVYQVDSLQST

[9] = molecular target: T4, Dual specificity protein phosphatase 6
[10] = molecular target: T5, Tyrosine-protein phosphatase non-receptor type 7 (Homo sapiens, UniProt P35236); type: functional
T5 sequence (P35236 whole entry): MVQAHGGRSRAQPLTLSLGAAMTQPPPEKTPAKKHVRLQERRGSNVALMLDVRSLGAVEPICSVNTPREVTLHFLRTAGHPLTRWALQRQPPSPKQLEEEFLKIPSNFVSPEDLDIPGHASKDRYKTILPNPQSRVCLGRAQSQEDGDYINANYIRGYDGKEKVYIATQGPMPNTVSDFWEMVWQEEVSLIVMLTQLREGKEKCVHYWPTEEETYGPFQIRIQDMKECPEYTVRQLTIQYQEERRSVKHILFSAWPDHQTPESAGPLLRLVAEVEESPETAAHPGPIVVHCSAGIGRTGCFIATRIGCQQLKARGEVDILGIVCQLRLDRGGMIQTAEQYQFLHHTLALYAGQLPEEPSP

[11] = molecular target: Glyceraldehyde-3-phosphate dehydrogenase (Homo sapiens, UniProt P04406)
Sequence of Glyceraldehyde-3-phosphate dehydrogenase (P04406 whole entry): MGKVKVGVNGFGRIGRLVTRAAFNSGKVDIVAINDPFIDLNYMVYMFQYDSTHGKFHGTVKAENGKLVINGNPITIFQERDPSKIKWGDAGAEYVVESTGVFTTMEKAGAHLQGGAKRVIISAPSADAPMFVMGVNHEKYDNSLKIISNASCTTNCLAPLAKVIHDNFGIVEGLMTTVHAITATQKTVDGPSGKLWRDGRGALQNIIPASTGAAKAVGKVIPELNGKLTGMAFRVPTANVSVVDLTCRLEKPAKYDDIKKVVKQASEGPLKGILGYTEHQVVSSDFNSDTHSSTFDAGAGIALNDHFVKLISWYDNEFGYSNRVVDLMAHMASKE

[12] = general cell-killing toxicity readout – plate reader, dry powder samples, cytotoxicity control for PAX8 inhibitor project, dose response (AID 743021); type: functional, cell-based
[13] = molecular target: Delta-type opioid receptor (Homo sapiens, UniProt P41143); experiment: Counterscreen for agonists of heterodimerization of the mu 1 (OPRM1) and delta 1 (OPRD1) opioid receptors: Luminescence-based cell-based high throughput dose response assay to identify agonists of OPRD1 homodimerization. [Related pubchem assays (depositor defined):AID504326, AID504355, AID504692, AID504904, AID504905]; type: functional
Sequence of Delta-type opioid receptor (P41143 whole entry): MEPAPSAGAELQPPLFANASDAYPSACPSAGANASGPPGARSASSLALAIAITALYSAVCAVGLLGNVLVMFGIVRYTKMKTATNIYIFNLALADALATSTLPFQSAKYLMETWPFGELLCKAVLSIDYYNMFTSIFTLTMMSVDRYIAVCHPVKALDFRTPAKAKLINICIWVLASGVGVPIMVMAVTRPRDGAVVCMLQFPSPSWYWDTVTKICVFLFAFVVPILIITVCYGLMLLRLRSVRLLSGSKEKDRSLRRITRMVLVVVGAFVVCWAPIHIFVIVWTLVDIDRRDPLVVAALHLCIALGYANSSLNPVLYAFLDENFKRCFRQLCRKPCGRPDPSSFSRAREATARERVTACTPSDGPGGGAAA

[14] = molecular target: 5-hydroxytryptamine receptor 5A (Homo sapiens, UniProt P47898); experiment: Counterscreen for agonists of OPRM1-OPRD1 heterodimerization: luminescence-based cell-based high throughput dose response assay to identify agonists of 5-hydroxytryptamine (serotonin) 5A receptor (HTR5A). [Related pubchem assays (depositor defined):AID504326, AID504355, AID504692, AID504904, AID504905]; type: functional
Sequence of 5-hydroxytryptamine receptor 5A (P47898 whole entry): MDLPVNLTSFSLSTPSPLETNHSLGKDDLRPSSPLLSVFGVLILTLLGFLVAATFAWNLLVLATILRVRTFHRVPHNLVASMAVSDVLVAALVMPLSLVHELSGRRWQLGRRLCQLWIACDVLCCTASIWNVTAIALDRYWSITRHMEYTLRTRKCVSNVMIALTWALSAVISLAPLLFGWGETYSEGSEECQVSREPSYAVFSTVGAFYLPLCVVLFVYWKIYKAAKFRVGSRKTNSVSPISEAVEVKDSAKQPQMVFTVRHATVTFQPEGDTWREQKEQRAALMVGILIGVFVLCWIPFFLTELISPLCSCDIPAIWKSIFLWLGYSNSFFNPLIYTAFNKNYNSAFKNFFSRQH

Mu-type opioid receptor [15] = molecular target: T1, Mu-type opioid receptor; experiment: Counterscreen for agonists of heterodimerization of the mu 1 (OPRM1) and delta 1 (OPRD1) opioid receptors: Luminescence-based cell-based high throughput dose response assay to identify agonists of OPRM1 homodimerization.; type: functional
[16] = molecular target: Melanin-concentrating hormone receptor 1 (Homo sapiens, UniProt Q99705); experiment: Fluorescence-based counterscreen for antagonists of the G-protein coupled receptor 7 (GPR7): cell-based high throughput dose response assay to identify antagonists of the melanin-concentrating hormone receptor 1 (MCHR1).; type: functional
Sequence of Melanin-concentrating hormone receptor 1 (Q99705 whole entry): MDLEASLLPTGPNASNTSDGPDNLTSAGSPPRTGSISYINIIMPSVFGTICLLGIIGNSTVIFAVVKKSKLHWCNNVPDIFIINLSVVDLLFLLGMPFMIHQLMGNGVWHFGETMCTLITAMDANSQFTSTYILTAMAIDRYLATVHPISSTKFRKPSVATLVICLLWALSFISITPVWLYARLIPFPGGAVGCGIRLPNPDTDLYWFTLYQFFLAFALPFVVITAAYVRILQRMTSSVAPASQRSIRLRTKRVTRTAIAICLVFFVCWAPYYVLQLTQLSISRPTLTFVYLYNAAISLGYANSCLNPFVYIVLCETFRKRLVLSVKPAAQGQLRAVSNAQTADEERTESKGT

[17] = molecular target: T6, Neuropeptides B/W receptor type 1 (Homo sapiens, UniProt P48145); experiment: Fluorescence-based dose response cell-based high throughput screening assay to identify antagonists of the G-protein coupled receptor 7 (GPR7). [Related pubchem assays: 1952 (Screening assay (GPR7 antagonists).), 1880 (Summary AID.)]; type: functional
T6 sequence (P48145 whole entry): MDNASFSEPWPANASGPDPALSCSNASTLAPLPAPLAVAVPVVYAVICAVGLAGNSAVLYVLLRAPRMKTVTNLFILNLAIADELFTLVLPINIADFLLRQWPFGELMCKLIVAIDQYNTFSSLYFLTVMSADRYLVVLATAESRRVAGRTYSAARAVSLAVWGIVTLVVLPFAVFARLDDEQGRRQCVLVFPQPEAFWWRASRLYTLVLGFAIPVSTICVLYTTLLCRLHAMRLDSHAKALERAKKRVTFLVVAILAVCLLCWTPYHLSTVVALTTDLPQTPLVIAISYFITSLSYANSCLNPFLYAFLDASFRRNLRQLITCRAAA

Hexokinase-1 = molecular target: T7, Hexokinase-1 (Homo sapiens, UniProt P19367); experiment: hexokinase 1 activity inhibitors, potency – biochemical, set 2, resazurin fluorescence coupled readout, selectivity assay for HKDC1 inhibitor project, SAR follow-up (AID 588356); type: functional
T7 sequence (P19367 whole entry): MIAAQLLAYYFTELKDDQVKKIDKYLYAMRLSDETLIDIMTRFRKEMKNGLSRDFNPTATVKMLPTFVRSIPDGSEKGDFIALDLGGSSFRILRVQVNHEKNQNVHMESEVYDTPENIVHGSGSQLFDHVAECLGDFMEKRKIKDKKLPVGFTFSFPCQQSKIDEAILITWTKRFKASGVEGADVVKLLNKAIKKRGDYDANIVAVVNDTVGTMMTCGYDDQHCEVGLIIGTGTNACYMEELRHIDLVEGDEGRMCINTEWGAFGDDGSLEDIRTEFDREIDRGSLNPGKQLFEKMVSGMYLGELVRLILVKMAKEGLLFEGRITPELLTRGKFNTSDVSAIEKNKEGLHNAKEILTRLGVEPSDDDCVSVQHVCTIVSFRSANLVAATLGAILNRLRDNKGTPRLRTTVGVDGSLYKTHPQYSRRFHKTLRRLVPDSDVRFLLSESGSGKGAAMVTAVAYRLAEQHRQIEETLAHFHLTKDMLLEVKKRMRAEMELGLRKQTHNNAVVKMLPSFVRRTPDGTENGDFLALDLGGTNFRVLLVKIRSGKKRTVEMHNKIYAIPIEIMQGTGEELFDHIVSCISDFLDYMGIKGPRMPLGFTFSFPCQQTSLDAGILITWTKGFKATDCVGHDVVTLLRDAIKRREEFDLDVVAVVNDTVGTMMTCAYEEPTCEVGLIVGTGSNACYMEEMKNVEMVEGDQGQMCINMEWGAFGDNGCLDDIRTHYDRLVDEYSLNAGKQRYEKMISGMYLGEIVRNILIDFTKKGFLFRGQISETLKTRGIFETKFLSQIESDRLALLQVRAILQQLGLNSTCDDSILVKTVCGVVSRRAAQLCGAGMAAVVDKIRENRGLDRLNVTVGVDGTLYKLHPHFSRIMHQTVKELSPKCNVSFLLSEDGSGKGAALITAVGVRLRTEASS

Hexokinase HKDC1 = molecular target: T8, Hexokinase HKDC1 (Homo sapiens, UniProt Q2TB90); experiment: analog inhibition of human HKDC1 activity – biochemical, set 2, SAR follow-up (AID 588355); type: functional
T8 sequence (Q2TB90 whole entry): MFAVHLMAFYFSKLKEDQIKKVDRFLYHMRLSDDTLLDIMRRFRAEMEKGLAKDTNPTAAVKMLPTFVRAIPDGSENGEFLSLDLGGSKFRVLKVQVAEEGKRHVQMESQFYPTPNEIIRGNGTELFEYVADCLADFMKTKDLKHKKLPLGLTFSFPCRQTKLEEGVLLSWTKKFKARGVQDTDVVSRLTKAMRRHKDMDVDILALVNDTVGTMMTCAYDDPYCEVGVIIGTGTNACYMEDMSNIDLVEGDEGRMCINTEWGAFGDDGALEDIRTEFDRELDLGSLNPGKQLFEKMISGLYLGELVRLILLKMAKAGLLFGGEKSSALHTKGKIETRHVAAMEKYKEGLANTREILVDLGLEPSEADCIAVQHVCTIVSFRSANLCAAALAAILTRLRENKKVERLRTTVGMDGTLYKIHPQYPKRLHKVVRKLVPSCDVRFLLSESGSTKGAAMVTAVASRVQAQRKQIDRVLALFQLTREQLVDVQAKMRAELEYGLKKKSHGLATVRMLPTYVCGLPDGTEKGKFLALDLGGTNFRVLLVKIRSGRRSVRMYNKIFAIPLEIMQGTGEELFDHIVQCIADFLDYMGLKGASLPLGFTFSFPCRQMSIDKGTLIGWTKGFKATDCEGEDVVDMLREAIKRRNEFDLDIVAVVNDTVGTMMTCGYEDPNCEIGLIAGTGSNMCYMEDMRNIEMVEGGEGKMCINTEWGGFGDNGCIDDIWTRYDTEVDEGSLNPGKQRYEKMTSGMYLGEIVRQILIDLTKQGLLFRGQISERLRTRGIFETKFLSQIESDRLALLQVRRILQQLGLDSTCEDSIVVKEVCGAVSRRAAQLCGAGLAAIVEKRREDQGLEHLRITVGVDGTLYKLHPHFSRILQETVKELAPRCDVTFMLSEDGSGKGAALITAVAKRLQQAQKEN

T1 sequence (P35372 whole entry): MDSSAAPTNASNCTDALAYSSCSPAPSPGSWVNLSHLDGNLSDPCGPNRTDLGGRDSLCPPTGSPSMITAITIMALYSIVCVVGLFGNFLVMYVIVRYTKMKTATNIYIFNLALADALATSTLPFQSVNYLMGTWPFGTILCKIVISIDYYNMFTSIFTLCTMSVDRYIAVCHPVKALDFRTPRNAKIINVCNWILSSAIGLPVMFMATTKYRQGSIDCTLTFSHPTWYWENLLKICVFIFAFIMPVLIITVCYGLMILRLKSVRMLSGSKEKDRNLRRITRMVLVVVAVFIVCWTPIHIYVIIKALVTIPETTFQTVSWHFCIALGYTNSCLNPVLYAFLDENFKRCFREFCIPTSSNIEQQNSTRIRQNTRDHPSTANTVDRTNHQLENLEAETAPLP

In the case of `Oc1ccc(C2CNCc3sccc32)cc1O` (stereo not drawn), the EC50 (cells [1]) is reported as > 29.9 µM (inactive), the EC50 (Mu-type opioid receptor [2]) is reported as 92.5 µM (inactive) and the IC50 (cells [3]) is reported as > 29.9 µM (inactive). For the same compound, the EC50 [4] was 0.752 µM (active), the IC50 [5] was 4.33 µM (active) and the EC50 [6] was 0.452 µM (active). For the same compound, the AC50 [7] was 11.2 µM (inconclusive).
For `COc1ccc(C(=O)NN=C(NS(=O)(=O)c2ccc(C)cc2)c2ccccc2)cc1`, the IC50 (Protein skinhead-1) was > 100 µM (inactive) and the AC50 (HeLa) was 55.4 µM (active).
For `CC(C)OCC(O)CN1CCN(CC(O)COc2ccc3c(c2)OCO3)CC1` (stereo not drawn), the AC50 (Escherichia coli) was 62.7 µM (active).
With `COc1ccc2cc(-c3nc4ccccc4n3C)c(=O)oc2c1` the AC50 (HeLa) was 174 µM (active).
With `COc1cc(Cl)ccc1OCc1cc(C(=O)NCC(C)(C)N2CCOCC2)no1` the AC50 (Escherichia coli) was 33.9 µM (active).
In the case of `CCCn1c(=O)nc(NCCc2ccccc2)[nH]c1=O`, the IC50 [8] is reported as > 100 µM (inactive), the IC50 [9] is reported as > 100 µM (inactive) and the IC50 [10] is reported as > 100 µM (not active). The IC50 [11] was > 100 µM (not active).
For `COc1ccc(C2Nc3ccccc3C(=O)N2c2ccc(F)cc2)cc1CSc1ccccn1` (stereo not drawn), the AC50 [12] was 48.8 µM (active), the EC50 [13] was > 30.8 µM (inactive) and the EC50 [14] was > 92.4 µM (inactive). For the same compound, the EC50 (Mu-type opioid receptor [15]) was > 92.4 µM (inactive).
In the case of `CCCCN1C(=O)C(NC(C)=O)c2cc(Br)ccc21` (stereo not drawn), the IC50 [16] is reported as > 43.8 µM (not active), the IC50 [17] is reported as > 43.8 µM (not active) and the IC50 (Hexokinase-1) is reported as > 80 µM (inactive). The IC50 (Hexokinase HKDC1) was > 80 µM (inactive).
In the case of `CCOC(=O)c1c(C)[nH]c(C(=O)OC/C(O)=C(\C#N)c2nc3ccccc3[nH]2)c1C`, the EC50 [13] is reported as > 92.5 µM (inactive), the EC50 [14] is reported as > 92.5 µM (inactive) and the EC50 (Mu-type opioid receptor [15]) is reported as > 92.5 µM (inactive).
In the case of `CC1CC(OC(=O)c2ccccc2O)CC(C)(C)C1` (stereo not drawn) [HOMOSALATE], the AC50 [7] is reported as 6.31 µM (inconclusive).
